Laboratory results from publication PMC7522858, “The Synthetic Myeloperoxidase Inhibitor AZD3241 Ameliorates Dextran Sodium Sulfate Stimulated Experimental Colitis” (Frontiers in Pharmacology, 2020).

Target: T1, myeloperoxidase (MPO) (Homo sapiens, UniProt P05164)
T1 construct: isolated human MPO
Experiment: luminol luminescence assay of isolated human MPO with H2O2 and NaCl
Type: biochemical

T1 sequence (P05164 165-273): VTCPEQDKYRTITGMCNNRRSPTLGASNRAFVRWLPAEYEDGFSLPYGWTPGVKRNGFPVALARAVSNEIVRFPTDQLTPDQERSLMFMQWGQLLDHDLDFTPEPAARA
T1 sequence (P05164 279-745): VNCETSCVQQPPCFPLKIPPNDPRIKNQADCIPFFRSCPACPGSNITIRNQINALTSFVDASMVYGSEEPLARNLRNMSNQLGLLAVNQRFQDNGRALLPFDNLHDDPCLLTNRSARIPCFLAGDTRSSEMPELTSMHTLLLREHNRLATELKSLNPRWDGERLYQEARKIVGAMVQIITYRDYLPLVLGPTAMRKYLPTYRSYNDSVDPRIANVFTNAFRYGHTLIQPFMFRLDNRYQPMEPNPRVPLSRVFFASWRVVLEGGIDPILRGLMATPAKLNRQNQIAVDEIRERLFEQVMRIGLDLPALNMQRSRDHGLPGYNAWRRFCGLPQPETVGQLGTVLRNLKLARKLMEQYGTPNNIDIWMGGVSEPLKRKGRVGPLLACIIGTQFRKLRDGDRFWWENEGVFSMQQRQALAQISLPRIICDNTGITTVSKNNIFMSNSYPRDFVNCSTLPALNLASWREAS

Q: With CC(C)OCCn1c(=S)[nH]c(=O)c2[nH]ccc21 [AZD3241] as the molecule, how does the IC50 read?
A: ~1.2 µM
